Data published in ChEMBL document CHEMBL5104202, “Structure-Uptake Relationship Studies of Oxazolidinones in Gram-Negative ESKAPE Pathogens” (J Med Chem, 2022).

Tests used:
Format in all cases: functional, organism-based
Escherichia coli [1] = assay: Antibacterial activity against recombinant OM pore producing Escherichia coli assessed as inhibition of bacterial growth
Acinetobacter baumannii [2] = assay: Antibacterial activity against wild type Acinetobacter baumannii assessed as inhibition of bacterial growth
Escherichia coli [3] = assay: Antibacterial activity against efflux pump lacking/recombinant OM pore producing Escherichia coli assessed as inhibition of bacterial growth
Escherichia coli [4] = assay: Antibacterial activity against efflux pump lacking Escherichia coli assessed as inhibition of bacterial growth
Pseudomonas aeruginosa [5] = assay: Antibacterial activity against wild type Pseudomonas aeruginosa assessed as inhibition of bacterial growth
Escherichia coli [6] = assay: Antibacterial activity against wild type Escherichia coli assessed as inhibition of bacterial growth
Acinetobacter baumannii [7] = assay: Antibacterial activity against efflux pump lacking/recombinant OM pore producing Acinetobacter baumannii assessed as inhibition of bacterial growth
Pseudomonas aeruginosa [8] = assay: Antibacterial activity against efflux pump lacking/recombinant OM pore producing Pseudomonas aeruginosa assessed as inhibition of bacterial growth
Pseudomonas aeruginosa [9] = assay: Antibacterial activity against recombinant OM pore producing Pseudomonas aeruginosa assessed as inhibition of bacterial growth
Acinetobacter baumannii [10] = assay: Antibacterial activity against efflux pump lacking Acinetobacter baumannii assessed as inhibition of bacterial growth
Acinetobacter baumannii [11] = assay: Antibacterial activity against recombinant OM pore producing Acinetobacter baumannii assessed as inhibition of bacterial growth
Pseudomonas aeruginosa [12] = assay: Antibacterial activity against efflux pump lacking Pseudomonas aeruginosa assessed as inhibition of bacterial growth

Structure (SMILES)	IC50 (Escherichia coli [1])	IC50 (Acinetobacter baumannii [2])	IC50 (Escherichia coli [3])	IC50 (Escherichia coli [4])	IC50 (Pseudomonas aeruginosa [5])	IC50 (Escherichia coli [6])	IC50 (Acinetobacter baumannii [7])	IC50 (Pseudomonas aeruginosa [8])	IC50 (Pseudomonas aeruginosa [9])	IC50 (Acinetobacter baumannii [10])	IC50 (Acinetobacter baumannii [11])	IC50 (Pseudomonas aeruginosa [12])
CC(C)[n+]1ccc(-c2ccc(N3C[C@H](CO)OC3=O)cc2F)cc1	42.8 µM	89.5 µM	16.6 µM	16.9 µM	> 100 µM	81.6 µM	22.3 µM	36.6 µM	> 100 µM	34.5 µM	22 µM	35.1 µM
O=C1O[C@@H](CO)CN1c1ccc(-c2ccc(SC(F)(F)F)cc2)c(F)c1	9.4 µM	63.5 µM	4.9 µM	6.9 µM	> 100 µM	35.1 µM	8.1 µM	6.9 µM	> 100 µM	9.1 µM	23.5 µM	78.2 µM
Cc1ccc(-c2ccc(N3C[C@H](CO)OC3=O)cc2F)cc1	3.2 µM	> 100 µM	0.3 µM	0.3 µM	> 100 µM	28 µM	1.6 µM	3.8 µM	> 100 µM	2.3 µM	> 100 µM	2.3 µM
O=C1O[C@@H](CO)CN1c1ccc(C#CCO)c(F)c1	> 100 µM	> 100 µM	43.6 µM	84 µM	> 100 µM	> 100 µM	> 100 µM	> 100 µM	> 100 µM	> 100 µM	> 100 µM	> 100 µM
COCC#Cc1ccc(N2C[C@H](CO)OC2=O)cc1F	36.3 µM	> 100 µM	44 µM	80.3 µM	> 100 µM	74.9 µM	> 100 µM	> 100 µM	> 100 µM	> 100 µM	> 100 µM	> 100 µM
COc1ccc(-c2ccc(N3C[C@H](CO)OC3=O)cc2F)cc1	3.4 µM	> 100 µM	0.3 µM	0.2 µM	> 100 µM	23.3 µM	0.6 µM	1.2 µM	> 100 µM	0.7 µM	> 100 µM	0.7 µM
O=C1O[C@@H](CO)CN1c1ccc(C#Cc2cc(Cl)cc(Cl)c2)c(F)c1	12.8 µM	> 100 µM	3.6 µM	26.1 µM	> 100 µM	74.8 µM	> 100 µM	16.2 µM	> 100 µM	> 100 µM	> 100 µM	64.9 µM
Nc1cccc(C#Cc2ccc(N3C[C@H](CO)OC3=O)cc2F)n1	19.2 µM	> 100 µM	20.5 µM	34.2 µM	> 100 µM	59 µM	76.7 µM	> 100 µM	> 100 µM	83.9 µM	49.8 µM	> 100 µM
CCC[n+]1ccc(-c2ccc(N3C[C@H](CO)OC3=O)cc2F)cc1	28.3 µM	> 100 µM	16.6 µM	12.7 µM	> 100 µM	43.9 µM	19.8 µM	> 100 µM	> 100 µM	89.7 µM	19.8 µM	> 100 µM
NC(CO)CC#Cc1ccc(N2C[C@H](CO)OC2=O)cc1F (some centres not stated)	> 100 µM	> 100 µM	> 100 µM	> 100 µM	> 100 µM	> 100 µM	> 100 µM	> 100 µM	> 100 µM	> 100 µM	> 100 µM	> 100 µM
O=C(O)CNCC#Cc1ccc(N2C[C@H](CO)OC2=O)cc1F	> 100 µM	> 100 µM	> 100 µM	> 100 µM	> 100 µM	> 100 µM	> 100 µM	> 100 µM	> 100 µM	> 100 µM	> 100 µM	> 100 µM
